This is an account of results in US10174002B2, “Pyridine derivatives as CFTR modulators” (NuBridge BioSciences, priority 2015, dated 2019).

Molecules are shown by their SMILES.

The target in the assay is T1, ΔF508 mutant CFTR (Homo sapiens, UniProt P13569, DEL508-508).
T1 construct: expressed in transfected cells; host or cells: Fischer rat thyroid (FRT) cells, co-expressing the halide-sensitive YFP-H148Q/I152L
T1 sequence (P13569 with tags, fused parts or gaps DEL508-508): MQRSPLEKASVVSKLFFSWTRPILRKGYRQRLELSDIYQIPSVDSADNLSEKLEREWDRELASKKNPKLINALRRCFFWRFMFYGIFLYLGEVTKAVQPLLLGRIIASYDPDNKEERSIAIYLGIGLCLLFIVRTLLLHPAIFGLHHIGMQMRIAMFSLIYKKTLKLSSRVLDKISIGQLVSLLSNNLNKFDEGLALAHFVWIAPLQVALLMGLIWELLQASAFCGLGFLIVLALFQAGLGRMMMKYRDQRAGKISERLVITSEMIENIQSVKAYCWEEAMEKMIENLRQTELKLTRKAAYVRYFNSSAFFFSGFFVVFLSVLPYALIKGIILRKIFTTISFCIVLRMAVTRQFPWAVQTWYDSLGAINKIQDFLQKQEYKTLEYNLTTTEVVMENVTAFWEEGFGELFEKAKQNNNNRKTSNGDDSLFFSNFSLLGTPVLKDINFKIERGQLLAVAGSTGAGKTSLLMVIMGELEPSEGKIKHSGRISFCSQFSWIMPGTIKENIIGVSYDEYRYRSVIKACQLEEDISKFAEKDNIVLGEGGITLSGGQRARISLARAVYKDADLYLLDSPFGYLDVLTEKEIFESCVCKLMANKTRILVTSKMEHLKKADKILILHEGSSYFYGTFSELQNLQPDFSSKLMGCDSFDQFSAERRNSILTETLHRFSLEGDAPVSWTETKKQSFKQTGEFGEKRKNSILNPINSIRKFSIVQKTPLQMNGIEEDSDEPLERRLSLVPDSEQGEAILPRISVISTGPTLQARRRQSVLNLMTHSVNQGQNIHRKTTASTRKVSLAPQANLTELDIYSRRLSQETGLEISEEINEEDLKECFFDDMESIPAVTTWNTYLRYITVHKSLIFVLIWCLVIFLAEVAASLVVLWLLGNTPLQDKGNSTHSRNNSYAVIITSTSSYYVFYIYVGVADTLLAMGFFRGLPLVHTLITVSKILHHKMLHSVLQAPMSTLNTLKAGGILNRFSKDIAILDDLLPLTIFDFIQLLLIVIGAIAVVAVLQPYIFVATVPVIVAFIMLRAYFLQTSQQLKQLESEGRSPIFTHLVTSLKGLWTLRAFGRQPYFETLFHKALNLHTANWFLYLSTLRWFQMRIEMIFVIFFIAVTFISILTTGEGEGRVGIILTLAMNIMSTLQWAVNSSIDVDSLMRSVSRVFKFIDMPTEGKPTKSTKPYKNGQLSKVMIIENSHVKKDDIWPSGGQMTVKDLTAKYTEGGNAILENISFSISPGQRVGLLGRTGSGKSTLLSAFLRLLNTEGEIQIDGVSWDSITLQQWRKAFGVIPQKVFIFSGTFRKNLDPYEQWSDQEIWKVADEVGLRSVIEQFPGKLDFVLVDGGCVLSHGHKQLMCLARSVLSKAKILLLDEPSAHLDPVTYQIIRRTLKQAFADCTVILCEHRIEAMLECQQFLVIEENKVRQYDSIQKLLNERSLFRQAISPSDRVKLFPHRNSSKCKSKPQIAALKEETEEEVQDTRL
Nature of the assay: Fluorescence Assay of ΔF508 mutant CFTR activity (halide-sensitive YFP quenching by iodide influx in FRT cells). As to conditions: test compounds 20 μM with forskolin 20 μM, 20 min; FRT cells expressing ΔF508-CFTR and YFP-H148Q/I152L, incubated at 27° C. 20-24 h; rate of fluorescence quenching by I−, normalized to mean activity with forskolin alone. Further details: key: fold of mean activity with forskolin alone (I− quenching rate). It counts as cell-based. From the text: The ΔF508 mutant CFTR activities of the CFTR modulators are detected using the Fluorescence Assay developed by Pedemonte (Pedemonte N., et al., Antihypertensive 1,4-dihydropyridines as correctors of the cystic fibrosis transmembrane conductance regulator channel gating defect caused by cystic fibrosis mutations, Mol. Pharmacol., 2005, 68, 1736-1746).
Fischer rat thyroid (FRT) cells, stably transfected with ΔF508 were retransfected with the YFP-H148Q/I152L fluorescent protein. The cells were plated (100,000 cells/well) on black 96-well microplates with clear plastic bottom (Corning Life Sciences, Acton, Mass.).
The 96-well microplates containing FRT cells expressing F508-CFTR and the halide-sensitive YFP were incubated at 27° C. for 20 to 24 h to allow rescue of the mutant protein to the plasma membrane. After incubation, cells were washed with PBS (containing 137 mM NaCl, 2.7 mM KCl, 8.1 mM Na2HPO4, 1.5 mM KH2PO4, 1 mM CaCl2, and 0.5 mM MgCl2) and stimulated for 20 min with forskolin (20 μM) and test compounds (20 μM) in a final volume of 60 μl. Microplates were then transferred to a microplate reader for CFTR activity determination. Each assay consisted of a continuous 14-s fluorescence reading (5 points per second) with 2 s before and 12 s after injection of 165 μl of an iodide-containing solution (PBS with Cl^− replaced by I^−). Final iodide concentration in the wells was 100 mM. […] To determine I^− influx rate, the final 11 s of the data for each well were fitted with an exponential function to extrapolate initial slope. CFTR activity was determined by measuring the rate of fluorescence quenching induced by extracellular addition of I^−. Data are normalized to the mean activity measured in the presence of forskolin alone.
With `Cl.O=C(Nc1cnccc1OC1CCCNC1)c1ccc(F)c(-c2c(F)cccc2F)n1` (centres unmarked) [Example 5, 6-(2,6-difluorophenyl)-5-fluoro-N-(4-(piperidin-3-yloxy)pyridin-3-yl)picolinamide hydrochloride], the “CFTR Activity” value is listed as 0.5.

On to `CC(O)CCOc1ccncc1NC(=O)c1ccc(F)c(-c2c(F)cccc2F)n1` (centres unmarked) [Example 18, 6-(2,6-difluorophenyl)-5-fluoro-N-(4-(3-hydroxybutoxy)pyridin-3-yl)picolinamide], for which the “CFTR Activity” value is 0.1.

As for `O=C(Nc1cnccc1OCCCO)c1ccc(F)c(-c2c(F)cccc2F)n1` [Example 17, 6-(2,6-difluorophenyl)-5-fluoro-N-(4-(3-hydroxypropoxy)pyridin-3-yl)picolinamide], the “CFTR Activity” value worked out at 0.2.

With `Cl.O=C(Nc1cnccc1OCC1CCNCC1)c1ccc(F)c(-c2c(F)cccc2F)n1` [Example 1, 6-(2,6-difluorophenyl)-5-fluoro-N-(4-(piperidin-4-ylmethoxy)pyridin-3-yl)picolinamide hydrochloride], the “CFTR Activity” value turned out to be 1.4.

With `Cl.NCC(CCl)COc1ccncc1NC(=O)c1ccc(F)c(-c2c(F)cccc2F)n1` (centres unmarked) [Example 30, N-(4-(3-amino-2-(chloromethyl)propoxy)pyridin-5-yl)-6-(2,6-difluorophenyl)-5-fluoropicolinamide hydrochloride], the “CFTR Activity” value is 1.6.

As to `Cl.Nc1cc(F)c(-c2c(F)cccc2F)nc1C(=O)Nc1cnccc1OCC1CCNCC1` [Example 23, 3-amino-6-(2,6-difluorophenyl)-5-fluoro-N-(4-(piperidin-4-ylmethoxy)pyridin-3-yl)picolinamide hydrochloride], the “CFTR Activity” value was determined as 2.5.

`Cl.Nc1cc(C(F)(F)F)c(-c2c(F)cccc2F)nc1C(=O)Nc1cnccc1OC1CCNCC1` [Example 51, 3-amino-6-(2,6-difluorophenyl)-N-(4-(piperidin-4-yloxy)pyridin-3-yl)-5-(trifluoromethyl)picolinamide hydrochloride]: the “CFTR Activity” value worked out at 4.8.

Regarding `Cl.Nc1cc(C(F)(F)F)c(-c2c(F)cccc2F)nc1C(=O)Nc1cnccc1O[C@H]1CC[C@H](N)CC1` [Example 52], the “CFTR Activity” value is 5.4.

`Cl.O=C(Nc1cnccc1OC1CCNCC1)c1ccc(F)c(-c2ccncc2)n1` [Example 39, 3-fluoro-N-(4-(piperidin-4-yloxy)pyridin-3-yl)-[2,4′-bipyridine]-6-carboxamide hydrochloride]: the “CFTR Activity” value was 1.0.

In the case of `Cl.NCC(CCl)COc1ccncc1NC(=O)c1nc(-c2c(F)cccc2F)c(F)cc1N` (centres unmarked) [Example 34, 3-amino-N-(4-(3-amino-2-(chloromethyl)propoxy)pyridin-3-yl)-6-(2,6-difluorophenyl)-5-fluoropicolinamide hydrochloride], the “CFTR Activity” value was 2.3.

For `O=C(Nc1cnccc1OCCCCO)c1ccc(F)c(-c2c(F)cccc2F)n1` [Example 19, 6-(2,6-difluorophenyl)-5-fluoro-N-(4-(4-hydroxybutoxy)pyridin-3-yl)picolinamide], the “CFTR Activity” value is recorded as 0.3.

Take `O=C(Nc1cnccc1OCC1CCOCC1)c1ccc(F)c(-c2c(F)cccc2F)n1` [Example 22, 6-(2,6-difluorophenyl)-5-fluoro-N-(4-((tetrahydro-2H-pyran-4-yl)methoxy)pyridin-3-yl)picolinamide]: the “CFTR Activity” value worked out at 0.05.

As to `Cl.Nc1cc(F)c(-c2c(F)cccc2F)nc1C(=O)Nc1cnccc1OC1CCNCC1` [Example 25, 3-amino-6-(2,6-difluorophenyl)-5-fluoro-N-(4-(piperidin-4-yloxy)pyridin-3-yl)picolinamide hydrochloride], the “CFTR Activity” value is on record as 3.2.

With `Cl.NCC(CO)COc1ccncc1NC(=O)c1nc(-c2c(F)cccc2F)c(C(F)(F)F)cc1N` (centres unmarked) [Example 59, 3-amino-N-(4-(3-amino-2-(hydroxymethyl)propoxy)pyridin-3-yl)-6-(2,6-difluorophenyl)-5-(trifluoromethyl)picolinamide hydrochloride], the “CFTR Activity” value turned out to be 3.1.

`Cl.O=C(Nc1cnccc1OCC1CNC1)c1ccc(C(F)(F)F)c(-c2c(F)cccc2F)n1` [Example 44, N-(4-(azetidin-3-ylmethoxy)pyridin-3-yl)-6-(2,6-difluorophenyl)-5-(trifluoromethyl)picolinamide hydrochloride]: the “CFTR Activity” value was 2.1.

For the compound `Cl.Nc1cc(F)c(-c2c(F)cccc2F)nc1C(=O)Nc1cnccc1O[C@H]1CC[C@H](N)CC1` [Example 27, 3-amino-N-(4-(((1r,4r)-4-aminocyclohexyl)oxy)pyridin-3-yl)-6-(2,6-difluorophenyl)-5-fluoropicolinamide hydrochloride], the “CFTR Activity” value stood at 4.5.

`Cl.NCCCCOc1ccncc1NC(=O)c1nc(-c2c(F)cccc2F)c(F)cc1N` [Example 36, 3-amino-N-(4-(4-aminobutoxy)pyridin-3-yl)-6-(2,6-difluorophenyl)-5-fluoropicolinamide hydrochloride]: the “CFTR Activity” value amounted to 2.3.

As to `Cl.NC1CCC(Oc2ccncc2NC(=O)c2ccc(F)c(-c3c(F)cccc3F)n2)CC1` (centres unmarked) [Example 10, N-(4-(((1r,4r)-4-aminocyclohexyl)oxy)pyridin-3-yl)-6-(2,6-difluorophenyl)-5-fluoropicolinamide hydrochloride], the “CFTR Activity” value was found to be 2.2.

In the case of `Cl.NCC(CO)COc1ccncc1NC(=O)c1ccc(C(F)(F)F)c(-c2c(F)cccc2F)n1` (centres unmarked) [Example 58, N-(4-(3-amino-2-(hydroxymethyl)propoxy)pyridin-3-yl)-6-(2,6-difluorophenyl)-5-(trifluoromethyl)picolinamide hydrochloride], the “CFTR Activity” value was 2.6.

In the case of `Cl.O=C(Nc1cnccc1OCC1CCCNC1)c1ccc(F)c(-c2c(F)cccc2F)n1` (centres unmarked) [Example 7, 6-(2,6-difluorophenyl)-5-fluoro-N-(4-(piperidin-3-ylmethoxy)pyridin-3-yl)picolinamide hydrochloride], the “CFTR Activity” value turned out to be 0.8.

For `Cl.Nc1cc(F)c(-c2c(F)cccc2F)nc1C(=O)Nc1cnccc1OCC1CCCNC1` (centres unmarked) [Example 35, 3-amino-6-(2,6-difluorophenyl)-5-fluoro-N-(4-(piperidin-3-ylmethoxy)pyridin-3-yl)picolinamide hydrochloride], the “CFTR Activity” value is reported as 2.1.

`Cl.NCC(CO)COc1ccncc1NC(=O)c1ccc(F)c(-c2c(F)cccc2F)n1` (centres unmarked) [Example 56, N-(4-(3-amino-2-(hydroxymethyl)propoxy)pyridin-3-yl)-6-(2,6-difluorophenyl)-5-fluoropicolinamide hydrochloride]: the “CFTR Activity” value was 2.4.

Regarding `Cl.N[C@H]1CC[C@H](Oc2ccncc2NC(=O)c2ccc(C(F)(F)F)c(-c3c(F)cccc3F)n2)CC1` [Example 46, N-(4-(((1r,4r)-4-aminocyclohexyl)oxy)pyridin-3-yl)-6-(2,6-difluorophenyl)-5-(trifluoromethyl)picolinamide hydrochloride], the “CFTR Activity” value was 3.1.

For the compound `Cl.Nc1cc(F)c(-c2ccccc2)nc1C(=O)Nc1cnccc1OC1CCNC1` (centres unmarked) [Example 38, 3-amino-5-fluoro-6-phenyl-N-(4-(pyrrolidin-3-yloxy)pyridin-3-yl)picolinamide hydrochloride], the “CFTR Activity” value was determined as 1.7.

Take `Cl.Nc1cc(F)c(-c2c(F)cccc2F)nc1C(=O)Nc1cnccc1OCC1CNC1` [Example 32, 3-amino-N-(4-(azetidin-3-ylmethoxy)pyridin-3-yl)-6-(2,6-difluorophenyl)-5-fluoropicolinamide hydrochloride]: the “CFTR Activity” value is recorded as 1.2.

In the case of `Cl.NCCCOc1ccncc1NC(=O)c1ccc(F)c(-c2c(F)cccc2F)n1` [Example 12, N-(4-(3-aminopropoxy)pyridin-3-yl)-6-(2,6-difluorophenyl)-5-fluoropicolinamide hydrochloride], the “CFTR Activity” value was 0.7.

As to `Cl.NC1CCCC(Oc2ccncc2NC(=O)c2ccc(F)c(-c3c(F)cccc3F)n2)C1` (centres unmarked) [Example 11, N-(4-((3-aminocyclohexyl)oxy)pyridin-3-yl)-6-(2,6-difluorophenyl)-5-fluoropicolinamide hydrochloride], the “CFTR Activity” value is listed as 3.1.

As for `CC(C)(O)CCCOc1ccncc1NC(=O)c1ccc(F)c(-c2c(F)cccc2F)n1` [Example 20, 6-(2,6-difluorophenyl)-5-fluoro-N-(4-((4-hydroxy-4-methylpentyl)oxy)pyridin-3-yl)picolinamide], the “CFTR Activity” value came to 0.1.

For `Cl.O=C(Nc1cnccc1OC1CCNCC1)c1ccc(C(F)(F)F)c(-c2c(F)cccc2F)n1` [Example 45, 6-(2,6-difluorophenyl)-N-(4-(piperidin-4-yloxy)pyridin-3-yl)-5-(trifluoromethyl)picolinamide hydrochloride], the “CFTR Activity” value is 2.7.
